According to patent US20070066526A1, “Method for reducing risk of and extent of injury due to stroke in hypertensive subjects” (priority 2005, published 2007):

How the values were obtained:
δPKC [1] = conditions: normotensive animals, sustained delivery; cited from earlier work
[2] = test system: hypertensive Dahl salt-sensitive rats; experiment: Middle cerebral artery occlusion, infarct size by TTC staining in hypertensive Dahl rats; assay type: in vivo, rat
Dahl salt-sensitive rats = experiment: Laser Doppler flowmetry of cerebral blood flow in hypertensive Dahl rats; conditions: 11 weeks old, intraperitoneal injection 0.2 mg/kg, 25 min post-treatment vs baseline, mean±SEM
Experimental: Six week old Dahl salt-sensitive rats were placed on an 8% high-salt diet to induce hypertension. Cerebral brain flow (CBF) was measured at 11 weeks, 4 weeks following high-salt diet onset. A burr hole was drilled 1 mm posterior and 6 mm lateral to bregma, corresponding to the ischemic territory. A laser Doppler transducer probe (Laserflo) was affixed above the cortex using a stereotaxic frame (Harvard Apparatus, MA), and a baseline CBF was established over a period of 20-30 minutes (1 minute intervals), Tat control peptide (n=5) or δV1-1-Tat peptide (n=15) was injected by intraperitoneal injection (0.2 mg/kg in 1 mL) and cerebral brain flow was monitored for an additional 20-30 minutes. Cerebral brain flow was also measured in the sham control animals (n=4).
Analysis of changes in cerebral brain flow was performed by comparing the baseline flow-rate at 20 minutes, to the flow-rate at 25 minutes post-treatment in all animals. Results were expressed as both a scattergram of percent flow changes in individual animals, and the mean±SEM flow in each group. Statistical analysis between Tat and δV1-1-Tat treatment groups was performed using an unpaired t-test.

εPKC = molecular target: T1, εPKC (Rattus norvegicus, UniProt P09216); experiment: Western blot of εPKC translocation in brain of Dahl hypertensive rats; conditions: sustained subcutaneous pump delivery, same blot reprobed
T1 sequence (P09216 1-737): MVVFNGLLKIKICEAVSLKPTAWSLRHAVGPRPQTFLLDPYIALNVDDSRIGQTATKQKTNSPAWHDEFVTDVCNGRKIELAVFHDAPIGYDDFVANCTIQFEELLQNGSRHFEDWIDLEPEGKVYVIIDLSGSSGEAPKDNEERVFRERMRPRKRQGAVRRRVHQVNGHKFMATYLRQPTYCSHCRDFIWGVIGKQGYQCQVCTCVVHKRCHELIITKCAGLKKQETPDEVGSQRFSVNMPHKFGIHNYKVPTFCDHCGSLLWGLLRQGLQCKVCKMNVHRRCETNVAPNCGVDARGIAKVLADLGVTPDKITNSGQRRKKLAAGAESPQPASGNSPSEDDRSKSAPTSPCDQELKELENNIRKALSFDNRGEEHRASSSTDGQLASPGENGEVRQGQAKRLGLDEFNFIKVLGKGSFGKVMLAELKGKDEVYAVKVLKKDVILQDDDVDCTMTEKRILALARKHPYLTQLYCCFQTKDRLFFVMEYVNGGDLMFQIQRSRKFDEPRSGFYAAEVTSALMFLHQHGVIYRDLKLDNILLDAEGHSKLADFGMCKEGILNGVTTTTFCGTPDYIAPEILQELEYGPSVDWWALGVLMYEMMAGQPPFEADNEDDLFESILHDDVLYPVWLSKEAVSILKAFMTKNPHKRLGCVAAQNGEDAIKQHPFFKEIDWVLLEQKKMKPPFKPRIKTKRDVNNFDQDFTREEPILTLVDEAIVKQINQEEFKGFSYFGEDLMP

δPKC [3] = molecular target: δPKC (Rattus norvegicus, UniProt P09215); experiment: Western blot of δPKC translocation (soluble to membrane fraction) in brain of Dahl hypertensive rats; conditions: sustained subcutaneous pump delivery 4-6 weeks, n=3
Sequence of δPKC (Rattus norvegicus, UniProt P09215) (P09215 whole entry): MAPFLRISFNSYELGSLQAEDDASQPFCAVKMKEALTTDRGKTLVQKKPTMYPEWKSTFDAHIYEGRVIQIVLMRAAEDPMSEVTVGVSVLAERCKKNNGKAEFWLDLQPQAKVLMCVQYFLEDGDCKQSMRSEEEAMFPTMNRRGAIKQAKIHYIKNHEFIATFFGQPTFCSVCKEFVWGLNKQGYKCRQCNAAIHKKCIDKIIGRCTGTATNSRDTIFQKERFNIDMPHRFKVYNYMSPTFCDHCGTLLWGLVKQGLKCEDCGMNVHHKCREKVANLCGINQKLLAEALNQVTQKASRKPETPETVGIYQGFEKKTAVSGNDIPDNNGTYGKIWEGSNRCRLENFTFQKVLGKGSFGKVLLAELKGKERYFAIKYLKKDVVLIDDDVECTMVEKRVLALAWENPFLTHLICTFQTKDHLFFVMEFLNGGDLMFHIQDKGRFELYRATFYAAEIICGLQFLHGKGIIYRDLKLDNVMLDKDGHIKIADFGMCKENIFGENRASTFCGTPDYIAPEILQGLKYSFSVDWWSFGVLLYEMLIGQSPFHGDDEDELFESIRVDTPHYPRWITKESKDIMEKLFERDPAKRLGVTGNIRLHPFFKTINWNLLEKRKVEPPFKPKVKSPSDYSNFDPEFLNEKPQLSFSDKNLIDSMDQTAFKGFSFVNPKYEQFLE
Experimental: Dahl rats were implanted with pumps for subcutaneous delivering δV1-1-Tat or Tat control peptide for 4-6 weeks. δPKC activity in brain samples was assessed by determining the translocation of the enzyme from the soluble, cytosolic fraction, to the membrane-bound fraction, a standard marker for PKC activation (Kraft, A. S. et al., Nature, 301:621-3 (1983)).
The density of the bands was measured to assess PKC translocation, as a measure of δPKC activation.
Brains from Dahl hypertensive rats that received δV1-1-Tat or Tat peptide delivery for 4 weeks, starting at 11 weeks of age, were quickly isolated and frozen. Tissue fractionation was performed to collect soluble (cytosolic) and particulate (membrane) fractions, as previously described (Johnson, J. A. et al., Life Sci., 57:1027-38(1995)). 5 μg of protein from each fraction was used forwestern blot analysis using a rabbit anti-phospho-serine 643 δPKC antibody (Santa Cruz Biotechnology; 1:500) followed with an anti-rabbit secondary antibody (Amersham). Density of δPKC bands was measured to assess translocation of PKC from the cytosol to membrane fractions, a measure of activation (Kraft, A. S. et al., Nature, 301:621-3 (1983)). Blots were then reprobed with a rabbit anti-δPKC antibody (Santa Cruz Biotechnology; 1:500), to assess translocation of the δPKC isozyme. Statistical analysis was performed using students t-test.

Row | Sequence | δPKC activity in the brain (δPKC [1]) | reduction of infarct size compared with Tat controls ([2]; 90 min MCA occlusion, 24 h reperfusion, chronic subcutaneous pump delivery, animals without hemorrhage) | infarct size (relative stroke area) ([2]; 90 min MCA occlusion, 24 h reperfusion, chronic subcutaneous pump delivery, animals without hemorrhage, n=6-7 per group) | change in cerebral blood flow from baseline (Dahl salt-sensitive rats) | εPKC activation, percent translocation (εPKC) | infarct size (relative stroke area) ([2]; rat, in vivo, sc) | δPKC activation, percent translocation (δPKC [3])
1 | SFNSYELGSL (listed as Rattus norvegicus) [δV1-1] | inhibits δPKC activity | 25% | 30±4% | 12% |  |  | 
2 | YGRKKRRQRRR [Tat] |  |  |  | −5±9% | 46±5 % translocation | 39±3% | 49±1 % translocation
